This note sets out measurements from patent US20090281142A1, “THIAZOLE DERIVATIVE” (ASTELLAS PHARMA INC., priority 2005, published 2009).

Test [1] addresses T1, recombinant human liver GK (GST-hGK2) (Homo sapiens, UniProt P35557).
T1 construct: cloning of ORF (open reading frame) was carried out by the following procedure based on AK122876.1; made in house; host or cells: E. coli
T1 sequence (P35557 1-466 isoform P35557-2): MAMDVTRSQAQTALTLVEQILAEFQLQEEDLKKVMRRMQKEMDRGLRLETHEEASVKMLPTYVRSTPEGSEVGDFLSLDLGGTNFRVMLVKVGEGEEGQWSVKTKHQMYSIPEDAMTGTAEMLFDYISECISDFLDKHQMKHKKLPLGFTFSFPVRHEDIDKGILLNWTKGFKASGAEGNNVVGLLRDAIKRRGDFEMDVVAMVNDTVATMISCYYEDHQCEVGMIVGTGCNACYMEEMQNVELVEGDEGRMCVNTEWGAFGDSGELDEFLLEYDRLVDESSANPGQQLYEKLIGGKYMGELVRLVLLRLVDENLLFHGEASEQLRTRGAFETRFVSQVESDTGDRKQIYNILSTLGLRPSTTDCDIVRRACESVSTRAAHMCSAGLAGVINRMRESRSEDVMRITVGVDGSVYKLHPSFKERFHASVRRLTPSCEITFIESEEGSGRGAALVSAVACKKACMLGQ
As to the kind of experiment: Measurement of GK activation. In kind it is biochemical. Conditions: 10 min; 10 μM test agent, 5 mM glucose, increase of absorbance (340 nm) in first 10 minutes relative to DMSO control. The method, then: Measurement of the GK activation by test agents was carried out in accordance with the method described in Science 301: 370-373, 2003, and by partially modifying this. The GK activity was measured as a change in absorbance based on the amount of NADPH which is converted from NADP (nicotinamide adenine dinucleotide phosphate) when glucose 6-phosphate produced by GK using glucose as the substrate is […] glucose-6-phosphate dehydrogenase.
Regarding the recombinant human liver GK (GST-hGK2) to be used in this assay, it was used by expressing as GST (glutathione S transferase)-fusion protein in E. coli and purifying by a Glutathione Sepharose column.
Regarding the sequence of glucokinase isoform 2, cloning of ORF (open reading frame) was carried out by the following procedure based on AK122876.1 (accession number). Using pME18S-FL3-Glucokinase isoform 2 as the template, PCR (polymerase chain reaction) was carried out using 5′-[…]-3′(SEQ ID NO:1) as the 5′ primer and 5′-[…]-3′ (SEQ ID NO:2) as the 3′ primer, and the PCR product was TA-cloned into pGEM-T easy vector. The sequence of this clone was confirmed by carrying out its sequencing. Thereafter, a fragment digested with EcoRI and XhoI was ligated to a vector pGEX-5X-1 digested in the same manner to prepare pGEX-human Glucokinase 2.
Regarding the enzyme reaction, the measurement was carried out at 27° C. using a 96 well flat bottom plate. As the enzyme mixed liquid, 25 mM HEPES pH 7.4; 25 mM KCl; 2 mM MgCl2; 1 mM ATP; 0.1% BSA; 1 mM DTT; 0.8 mM NADP; 2.5 U/ml glucose-6-phosphate dehydrogenase; GST-hGK2 (all in final concentration, however, the amount of GST-hGK2 was adjusted in such a manner that increase of absorbance of the DMSO control in 10 minutes (ΔOD) becomes about 0.12) was prepared. The enzyme mixed liquid was dispensed in 89 μl portions into the aforementioned plate, and a test agent dissolved in DMSO or the DMSO control was added thereto in 1 μl portions. Subsequently, glucose (5 mM in final concentration) was added as the substrate solution in 10 μl portions and the reaction was started at 27° C.
After commencement of the reaction, the absorbance was measured at a wavelength of 340 nm for 15 minutes at intervals of about 30 seconds, and the GK activation of each compound was calculated from the increase of absorbance during the first 10 minutes (ΔOD). Index of the GK activation of each test agent was calculated from the following formula as the GK activation (%).
GK activation (%)=[(ΔODTest)−(ΔODCont)]/(ΔODCont)×100
ΔODTest: ΔOD at 10 μM test agent
ΔODCont: ΔOD of DMSO control

The next test concerns ICR mice. The test can be described thus: Action upon high blood glucose level after oral glucose loading in ICR mice. In kind it is in vivo. The settings on record: 3 mg/kg oral, fasted ICR mice, AUC of blood glucose from administration until 2 hours after oral glucose loading (2 g/kg) vs solvent control. On the procedure: After overnight fasting, body weights of ICR mice (N=5) were measured. Each test compound was dissolved in Cremophor solvent (Cremophor:DMSO:Water 5:5:90, v/v/v) to a concentration of 0.3 mg/ml. To each mouse was orally administered 10 ml/kg of the agent liquid (corresponds to the test compound of 3 mg/kg) or 10 ml/kg of the solvent control. Just before the administration of the test compound, about 60 μl of blood was collected from the venous plexus of the fundus of the eye using a capillary. After 30 minutes of the administration of the test compound, 200 mg/ml of glucose aqueous solution was orally administered at a dose of 10 ml/kg (corresponds to 2 g/kg). Just before the administration of glucose, about 60 μl of blood was collected from the venous plexus of the fundus of the eye using a capillary. Blood was collected in the same manner after 0.5, 1 and 2 hours of the glucose administration. Blood plasma was separated from the thus collected blood to measure the blood glucose level. AUC of the blood glucose level after the administration of the test compound until 2 hours after the glucose loading was compared with AUC of the solvent control group within the same period of time.

Test [2] deals with db/db (C57BL/KsJ-db/db) mice. The test can be described thus: Action upon high blood glucose level after oral glucose loading in db/db mice. The test is classed as in vivo. Conditions: 10 mg/kg oral, fasted db/db mice, from administration until 2 hours after oral glucose loading (2 g/kg). The method, then: After overnight fasting, body weights of db/db (C57BL/KsJ-db/db) mice (N=5) were measured. Each test compound was dissolved in Cremophor solvent (Cremophor:DMSO:Water 5:5:90, v/v/v) to a concentration of 1 mg/ml. To each db/db mouse was orally administered 10 ml/kg of the agent liquid (corresponds to the test compound of 10 mg/kg) or 10 ml/kg of the solvent control. Just before the administration of the test compound, about 60 μl of blood was collected from the venous plexus of the fundus of the eye using a capillary. After 30 minutes of the administration of the GK activator, 200 mg/ml of glucose aqueous solution was orally administered at a dose of 10 ml/kg (corresponds to 2 g/kg). Just before the administration of glucose, about 60 μl of blood was collected from the venous plexus of the fundus of the eye using a capillary. Blood was collected in the same manner after 0.5, 1 and 2 hours of the glucose administration. Blood plasma was separated from the thus collected blood to measure the blood glucose level. AUC of the blood glucose level after the administration of the test compound until 2 hours after the glucose loading was compared with AUC of the solvent control group within the same period of time.

Regarding `O=C(Nc1nc(C(O)CO)cs1)/C(=C/C1CCCC1)c1ccc(S(=O)(=O)C2CC2)cc1` (stereo not drawn) [Ex 45, (2E)-3-cyclopentyl-2-[4-(cyclopropylsulfonyl)phenyl]-N-[4-(1,2-dihydroxyethyl)-1,3-thiazol-2-yl]acrylamide], the activation at 10 µM in test [1] was 249%. For the same compound, the “Blood glucose lowering ratio (%)” value with ICR mice amounted to 23%. The “AUC of the blood glucose level lowered in comparison with AUC of the solvent control group” value in test [2] came to 39%.
